For experiment [1], the target named is NMDA receptor glycine B site (Rattus norvegicus, UniProt P35439). As to the kind of experiment: Whole cell patch-clamp recordings, rat hippocampal neurons (NMDA/D-Serine currents). The experiment is classed as cell-based. As to conditions: NMDA 200 μM + D-Serine 1 μM, -70 mV, read-out: NMDA-PC-r-HIC-NAM - IC50. As to the method: Antagonistic potencies of the test compounds are functionally evaluated using electrophysiological whole cell patch-clamp recordings and/or fluorometric intracellular Ca^2+-imaging (FLIPR) screens.
Cell preparation is performed as described by Parsons, et al. (Neuropharmacology, 1998, 37(6), 719-727). The female Sprague-Dawley rat is anaesthetised by placing in a saturated CO2-euthanasia chamber under further quiet CO2-influx. Under these conditions the rat loses consciousness after a few seconds and is then sacrificed by cervical dislocation. After opening the abdominal cavity, embryos (E20) are removed and stored in ice cold Ca^2+- and Mg^2+-free Hank's Buffered Salt Solution (pH 7.3), containing 4 g/l glucose (HBSS-CMF). Hippocampi are then isolated from the brains of at least 8 embryos after decapitation, transferred into ice cold HBSS-CMF and washed 3 to 4 times.
Hippocampi are pre-incubated for 8 min with a 0.66% trypsin (Sigma-Aldrich) and 0.1% (20 U/ml) DNAase solution (Sigma-Aldrich) in Ca^2+-free Phosphate Buffered Saline (PBS-CF) and washed 3 times with HBSS-CMF. Cells are then mechanically dissociated by trituration in a PBS-CF solution containing 0.05% (10 U/ml) DNAase and 0.3% of the trypsin inhibitor ovomucoid (all from Sigma-Aldrich). The cells are then centrifuged at 180×g for 10 minutes, and the cell pellet re-suspended in basal Minimum essential medium (MEM, Invitrogen, Karlsruhe, Germany), again carefully triturated to ensure maximal dissociation and finally plated in the flexiPERM inserts (Thermo Fisher Scientific, Langenselbold, Germany) at a density of 15×10^3 cells/cm^2 (0.5 ml/insert) onto poly-DL-ornithine (Sigma) and mouse laminin (Invitrogen) pre-coated plastic petri dishes. After 1 hour the cells become attached to the bottom of the dish and the inserts may be removed. The cells are then nourished with 2 ml MEM supplemented with 5% foetal calf serum (FCS) and 5% horse serum and incubated at 37° C. with 95% air and 5% CO2 at 95% humidity. After 4 days in vitro (DIV) further glial mitosis is inhibited by adding 10 μl of AraC (5 μM endconcentration). The medium is completely exchanged after an additional 2 DIV and again, but only partly (50%), after 8 DIV. The cells are used for electrophysiological recordings after 11-15 DIV.
Cells are visualised using an inverted microscope and selected for patching based upon their position and morphology. Voltage clamp recordings are made in the whole cell configuration of the patch clamp technique at a holding potential of −70 mV with the aid of an EPC-10 amplifier in combination with pipette manipulator. Patch clamp pipettes are pulled from borosilicate glass using a horizontal puller (P-97 Puller, Sutter Instruments, USA) and, when filled with intracellular solution, have resistances of 1-4 MΩ.
Solutions are delivered via a home-made gravity driven very fast perfusion system (<10 ms) including valves to switch flow on and off in combination with a stepper motor-driven double-barrelled theta glass application pipette in order to expose cells to either agonist-free or agonist-containing solutions in presence or absence of antagonist.
The intracellular solution used consists of: 120 mM CsCl, 10 mM EGTA, 1 mM MgCl2, 200 μM CaCl2, 10 mM glucose and 22 mM tetraethyl ammonium chloride (TEA-CL). The corresponding extracellular bath solution contains: 140 mM NaCl, 3 mM KCl, 10 mM glucose, 10 mM HEPES, 1.5 mM CaCl2 and 4.5 mM sucrose (all from Sigma-Aldrich) pH 7.3, and is supplemented with 0.3 μM tetrodotoxin (TTX, Tocris, Bristol, U.K.) to block voltage-activated sodium channels and 0.25 μM bicuculline (Sigma-Aldrich) to block GABAA receptors. […]
(Patch clamp records ionic current or voltage across a cell membrane.)

The target in experiment [2] is T1, glycine binding pocket of the NMDA receptor (Rattus norvegicus, UniProt P35439).
T1 construct: For isolation of the cell membranes, the cortices are homogenized; from tissue; host or cells: rat cerebral cortex membranes (male Sprague-Dawley)
As to the kind of experiment: [3H]MDL-105,519 displacement studies (rat cortical membranes). Particulars: displacement of 2 nM [3H]-MDL-105,519, rat cortical membranes; read-out: NMDA-MDL 105519-r-CTX - IC50.

Structures are written as SMILES.

For orientation: IC50 means the concentration that inhibits the measured activity by half. As to `O=C(COc1cc(C(=O)O)cc2cc(Cl)cc(Cl)c12)Nc1ccc(O)cc1` [Example 8, 5,7-Dichloro-4-[(4-hydroxyphenylcarbamoyl)-methoxy]-naphthalene-2-carboxylic acid], the concentration for half-maximal inhibition (IC50) in experiment [1] came out at 287 nM; in experiment [2], 1850 nM.

Regarding `O=C(COc1cc(C(=O)O)cc2cc(Cl)cc(Cl)c12)Nc1cccc(OCC(=O)N2CCOCC2)c1` [Example 47, 5,7-Dichloro-4-{[3-(2-morpholin-4-yl-2-oxo-ethoxy)-phenylcarbamoyl]-methoxy}-naphthalene-2-carboxylic acid], the IC50 was determined as 87 nM in experiment [1] and 218 nM in experiment [2].

(Values after US20120220577A1, “GLYCINE B ANTAGONISTS” (Merz Pharma GmbH & Co KgaA, priority 2009, published 2012).)
